Measurements published in patent US20250332266A1, “COMPOUNDS FOR THE DEGRADATION OF EGFR KINASE” (BeiGene Switzerland GmbH, priority 2022, published 2025).

Key:
[1] = target: EGFR Del19/T790M/C797S (H1975-clone #28) (Homo sapiens, UniProt P00533, T790M/C797S, form not given); assay: EGFR degradation, HTRF total-EGFR assay, H1975-clone #28 (DTC); assay type: cell-based; conditions: H1975-clone #28 Del19/T790M/C797S, 16 h treatment
Summary of the method: (§1)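 H1975 clones with endogenous EGFR knocked out and homozygous exogenous EGFR mutants (#28 Del19/T790M/C797S; #25 L858R/T790M/C797S) treated 16 h at 37 °C, 8 doses, 5-fold from 10 μM, 0.2% DMSO. Total EGFR measured by HTRF on lysates, normalised to DMSO controls; DC50 and Dmax from curve fit.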

[2] = target: T1, EGFR L858R/T790M/C797S (H1975-clone #25) (Homo sapiens, UniProt P00533, C797S/L858R/T790M); assay: EGFR degradation, HTRF total-EGFR assay, H1975-clone #25 (LTC); assay type: cell-based; conditions: H1975-clone #25 L858R/T790M/C797S, 16 h treatment
T1 construct: expressed in transfected cells; host or cells: H1975 (clone #25), lentiviral transduction, endogenous EGFR knocked out
T1 sequence (P00533 25-1210 T790M/C797S/L858R): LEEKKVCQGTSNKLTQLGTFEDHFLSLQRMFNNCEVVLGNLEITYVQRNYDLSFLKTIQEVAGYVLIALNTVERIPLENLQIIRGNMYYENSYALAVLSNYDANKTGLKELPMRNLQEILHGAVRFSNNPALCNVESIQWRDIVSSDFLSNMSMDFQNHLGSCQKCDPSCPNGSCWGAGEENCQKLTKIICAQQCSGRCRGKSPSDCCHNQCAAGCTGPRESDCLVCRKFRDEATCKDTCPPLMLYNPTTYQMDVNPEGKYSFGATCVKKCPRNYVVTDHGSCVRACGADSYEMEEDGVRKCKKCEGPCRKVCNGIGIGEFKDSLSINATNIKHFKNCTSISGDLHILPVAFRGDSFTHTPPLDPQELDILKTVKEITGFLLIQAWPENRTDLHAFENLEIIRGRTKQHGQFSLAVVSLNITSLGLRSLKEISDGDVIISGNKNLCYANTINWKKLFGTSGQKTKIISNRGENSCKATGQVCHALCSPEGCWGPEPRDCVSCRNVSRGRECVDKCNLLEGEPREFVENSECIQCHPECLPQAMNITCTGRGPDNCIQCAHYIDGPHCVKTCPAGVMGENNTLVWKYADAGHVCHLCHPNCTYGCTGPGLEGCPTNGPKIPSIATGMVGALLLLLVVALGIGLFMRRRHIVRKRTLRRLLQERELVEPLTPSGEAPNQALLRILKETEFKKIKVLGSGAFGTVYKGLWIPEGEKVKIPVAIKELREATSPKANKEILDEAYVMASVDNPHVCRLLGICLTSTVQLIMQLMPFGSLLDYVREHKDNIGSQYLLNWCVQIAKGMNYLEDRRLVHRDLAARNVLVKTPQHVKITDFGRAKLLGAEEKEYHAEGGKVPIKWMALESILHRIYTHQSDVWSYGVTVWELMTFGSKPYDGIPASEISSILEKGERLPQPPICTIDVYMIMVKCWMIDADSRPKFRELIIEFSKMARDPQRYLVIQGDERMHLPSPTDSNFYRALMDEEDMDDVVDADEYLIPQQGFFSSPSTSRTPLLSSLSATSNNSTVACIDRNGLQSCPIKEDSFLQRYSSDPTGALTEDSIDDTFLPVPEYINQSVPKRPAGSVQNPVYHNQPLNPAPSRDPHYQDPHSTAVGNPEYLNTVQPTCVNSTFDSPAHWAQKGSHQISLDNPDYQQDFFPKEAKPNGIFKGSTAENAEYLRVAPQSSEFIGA
Summary of the method: as §1

Chain of EGFR Del19/T790M/C797S (H1975-clone #28) (P00533 with tags, fused parts or gaps DEL746-750/T790M/C797S, form open): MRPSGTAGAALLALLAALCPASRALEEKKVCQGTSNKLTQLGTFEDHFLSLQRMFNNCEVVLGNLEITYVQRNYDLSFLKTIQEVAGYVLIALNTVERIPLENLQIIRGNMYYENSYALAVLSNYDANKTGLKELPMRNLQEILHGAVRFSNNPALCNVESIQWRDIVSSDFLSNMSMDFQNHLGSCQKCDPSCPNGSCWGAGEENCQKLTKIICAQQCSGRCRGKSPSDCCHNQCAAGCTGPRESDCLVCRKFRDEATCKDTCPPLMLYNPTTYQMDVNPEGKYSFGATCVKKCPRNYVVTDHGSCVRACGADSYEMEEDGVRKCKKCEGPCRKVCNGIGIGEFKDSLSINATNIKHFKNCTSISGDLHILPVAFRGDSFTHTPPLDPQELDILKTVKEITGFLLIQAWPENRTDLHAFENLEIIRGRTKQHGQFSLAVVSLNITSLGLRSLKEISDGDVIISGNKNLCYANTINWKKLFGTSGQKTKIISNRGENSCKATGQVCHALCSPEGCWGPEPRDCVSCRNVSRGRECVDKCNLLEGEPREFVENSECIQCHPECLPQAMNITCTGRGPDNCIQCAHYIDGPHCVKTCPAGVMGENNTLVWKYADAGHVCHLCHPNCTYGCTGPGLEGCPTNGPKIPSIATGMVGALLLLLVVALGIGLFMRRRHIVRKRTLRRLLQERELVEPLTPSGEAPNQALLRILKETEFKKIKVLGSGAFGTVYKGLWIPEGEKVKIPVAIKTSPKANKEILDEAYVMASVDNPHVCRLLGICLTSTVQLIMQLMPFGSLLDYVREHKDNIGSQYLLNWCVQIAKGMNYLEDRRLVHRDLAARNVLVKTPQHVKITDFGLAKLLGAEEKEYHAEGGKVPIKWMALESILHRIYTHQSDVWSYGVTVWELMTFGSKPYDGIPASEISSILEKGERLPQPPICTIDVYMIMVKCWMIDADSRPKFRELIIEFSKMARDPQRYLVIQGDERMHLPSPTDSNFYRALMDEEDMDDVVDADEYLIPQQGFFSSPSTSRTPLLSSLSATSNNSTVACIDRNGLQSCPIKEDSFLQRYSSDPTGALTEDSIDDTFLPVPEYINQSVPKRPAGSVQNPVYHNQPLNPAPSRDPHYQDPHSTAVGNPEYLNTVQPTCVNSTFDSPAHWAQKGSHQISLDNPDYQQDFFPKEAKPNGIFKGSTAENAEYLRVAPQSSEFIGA

## Cc1cc2cc(n1)-c1cnn(C)c1OC[C@H]1C[C@@H](CN3/C(=N/C2=O)Nc2ccc(N4CCN([C@H]5CCN(c6ccc(C7CCC(=O)NC7=O)nc6C)CC5(F)F)CC4)cc23)C1 (stereo partly drawn) [Example 125, 3-(5-((S)-4-(4-((7^1s,7^3R,E)-1^1,2^6-dimethyl-3-oxo-5^2,5^3-dihydro-1^1H,5^1H-9-oxa-4-aza-5(2,1)-benzo[d]imidazola-2(2,4)-pyridina-1(4,5)-pyrazola-7(1,3)-cyclobutanacyclononaphane-5^6-yl)piperazin-1-yl)-3,3-difluoropiperidin-1-yl)-6-methylpyridin-2-yl)piperidine-2,6-dione]
[1]
  Degradation H1975 # 28 DTC: 89.9
[2]
  Degradation H1975 # 25-LTC: 86.8

## Cc1cc2cc(n1)-c1cnn(C)c1OC[C@H]1C[C@@H](CN3/C(=N/C2=O)Nc2ccc(N4CC5CCC4CN5C4CCN(c5ccc(C6CCC(=O)NC6=O)nc5C)CC4)cc23)C1 (some centres unmarked) [Example 126, 3-(5-(4-(5-((7^1s,7^3s,E)-1^1,2^6-dimethyl-3-oxo-5^2,5^3-dihydro-1^1H,5^1H-9-oxa-4-aza-5(2,1)-benzo[d]imidazola-2(2,4)-pyridina-1(4,5)-pyrazola-7(1,3)-cyclobutanacyclononaphane-5^6-yl)-2,5-diazabicyclo[2.2.2]octan-2-yl)piperidin-1-yl)-6-methylpyridin-2-yl)piperidine-2,6-dione]
[1]
  Degradation H1975 # 28 DTC: 80.5
[2]
  Degradation H1975 # 25-LTC: 85.9

## Cc1cc2cc(n1)-c1cnn(C)c1OC[C@H]1C[C@@H](CN3/C(=N/C2=O)Nc2ccc(N4C5CCC4CN(C4CCN(c6ccc(C7CCC(=O)NC7=O)nc6C)CC4)C5)cc23)C1 (some centres unmarked) [Example 127, 3-(5-(4-(8-((7^1s,7^3s,E)-1^1,2^6-dimethyl-3-oxo-5^2,5^3-dihydro-1^1H,5^1H-9-oxa-4-aza-5(2,1)-benzo[d]imidazola-2(2,4)-pyridina-1(4,5)-pyrazola-7(1,3)-cyclobutanacyclononaphane-5^6-yl)-3,8-diazabicyclo[3.2.1]octan-3-yl)piperidin-1-yl)-6-methylpyridin-2-yl)piperidine-2,6-dione]
[1]
  Degradation H1975 # 28 DTC: 85.5
[2]
  Degradation H1975 # 25-LTC: 96.0

## Cc1cc2cc(n1)-c1cnn(C)c1OC[C@H]1C[C@@H](CN3/C(=N/C2=O)Nc2ccc(N4C5CCC4CN(C4CCN(c6cc(F)c([C@H]7CCC(=O)NC7=O)c(F)c6)CC4)C5)cc23)C1 [Example 128, (3R)-3-(4-(4-(8-((7^1s,7^3s,E)-1^1,2^6-dimethyl-3-oxo-5^2,5^3-dihydro-1^1H,5^1H-9-oxa-4-aza-5(2,1)-benzo[d]imidazola-2(2,4)-pyridina-1(4,5)-pyrazola-7(1,3)-cyclobutanacyclononaphane-5^6-yl)-3,8-diazabicyclo[3.2.1]octan-3-yl)piperidin-1-yl)-2,6-difluorophenyl)piperidine-2,6-dione]
[1]
  Degradation H1975 # 28 DTC: 75.7
[2]
  Degradation H1975 # 25-LTC: 73.7

## Cc1cc2cc(n1)-c1cnn(C)c1OC[C@H]1C[C@@H](CN3/C(=N/C2=O)Nc2ccc(N4CCC5(CCN(C6CCN(c7cc(F)c([C@H]8CCC(=O)NC8=O)c(F)c7)CC6)C5)C4)cc23)C1 (stereo partly drawn) [Example 129, (3R)-3-(4-(4-(7-((7^1s,7^3s,E)-1^1,2^6-dimethyl-3-oxo-5^2,5^3-dihydro-1^1H,5^1H-9-oxa-4-aza-5(2,1)-benzo[d]imidazola-2(2,4)-pyridina-1(4,5)-pyrazola-7(1,3)-cyclobutanacyclononaphane-5^6-yl)-2,7-diazaspiro[4.4]nonan-2-yl)piperidin-1-yl)-2,6-difluorophenyl)piperidine-2,6-dione]
[1]
  Degradation H1975 # 28 DTC: 73.2
[2]
  Degradation H1975 # 25-LTC: 72.7

## Cc1cc2cc(n1)-c1cnn(C)c1OC[C@H]1C[C@@H](CN3/C(=N/C2=O)Nc2ccc(N4C5CCC4CN(C4CCN(c6cnc(C7CCC(=O)NC7=O)cc6C)CC4)C5)cc23)C1 (some centres unmarked) [Example 130, 3-(5-(4-(8-((7^1s,7^3s,E)-1^1,2^6-dimethyl-3-oxo-5^2,5^3-dihydro-1^1H,5^1H-9-oxa-4-aza-5(2,1)-benzo[d]imidazola-2(2,4)-pyridina-1(4,5)-pyrazola-7(1,3)-cyclobutanacyclononaphane-5^6-yl)-3,8-diazabicyclo[3.2.1]octan-3-yl)piperidin-1-yl)-4-methylpyridin-2-yl)piperidine-2,6-dione]
[1]
  Degradation H1975 # 28 DTC: 83.4
[2]
  Degradation H1975 # 25-LTC: 90.7

## Cc1cc2cc(n1)-c1cnn(C)c1OC[C@H]1C[C@@H](CN3/C(=N/C2=O)Nc2ccc(N4CCN(C5CN(C6CCN(c7cnc(C8CCC(=O)NC8=O)cc7C)CC6)C5)CC4)cc23)C1 (some centres unmarked) [Example 131, 3-(5-(4-(3-(4-((7^1s,7^3s,E)-1^1,2^6-dimethyl-3-oxo-5^2,5^3-dihydro-1^1H,5^1H-9-oxa-4-aza-5(2,1)-benzo[d]imidazola-2(2,4)-pyridina-1(4,5)-pyrazola-7(1,3)-cyclobutanacyclononaphane-5^6-yl)piperazin-1-yl)azetidin-1-yl)piperidin-1-yl)-4-methylpyridin-2-yl)piperidine-2,6-dione]
[1]
  Degradation H1975 # 28 DTC: 68.0
[2]
  Degradation H1975 # 25-LTC: 84.8

## Cc1cc2cc(n1)-c1cnn(C)c1OC[C@H]1C[C@@H](CN3/C(=N/C2=O)Nc2ccc(N4CC5CCC4CN5C4CCN(c5cnc(C6CCC(=O)NC6=O)cc5C)CC4)cc23)C1 (some centres unmarked) [Example 132, 3-(5-(4-(5-((7^1s,7^3s,E)-1^1,2^6-dimethyl-3-oxo-5^2,5^3-dihydro-1^1H,5^1H-9-oxa-4-aza-5(2,1)-benzo[d]imidazola-2(2,4)-pyridina-1(4,5)-pyrazola-7(1,3)-cyclobutanacyclononaphane-5^6-yl)-2,5-diazabicyclo[2.2.2]octan-2-yl)piperidin-1-yl)-4-methylpyridin-2-yl)piperidine-2,6-dione]
[1]
  Degradation H1975 # 28 DTC: 77.3
[2]
  Degradation H1975 # 25-LTC: 88.3

## Cc1cc2cc(n1)-c1cnn(C)c1OC[C@H]1C[C@@H](CN3/C(=N/C2=O)Nc2ccc(N4CCN([C@@H]5CCN(c6cnc(C7CCC(=O)NC7=O)cc6C)C[C@@H]5F)CC4)cc23)C1 (stereo partly drawn) [Example 133, 3-(5-((3S,4R)-4-(4-((7^1s,7^3S,E)-1^1,2^6-dimethyl-3-oxo-5^2,5^3-dihydro-1^1H,5^1H-9-oxa-4-aza-5(2,1)-benzo[d]imidazola-2(2,4)-pyridina-1(4,5)-pyrazola-7(1,3)-cyclobutanacyclononaphane-5^6-yl)piperazin-1-yl)-3-fluoropiperidin-1-yl)-4-methylpyridin 2-yl)piperidine-2,6-dione]
[1]
  Degradation H1975 # 28 DTC: 88.8
[2]
  Degradation H1975 # 25-LTC: 92.1

## Cc1cc2cc(n1)-c1cnn(C)c1OC[C@H]1C[C@@H](CN3/C(=N/C2=O)Nc2ccc(N4CCN([C@H]5CCN(c6cnc(C7CCC(=O)NC7=O)cc6C)C[C@H]5F)CC4)cc23)C1 (stereo partly drawn) [Example 134, 3-(5-((3R,4S)-4-(4-((7^1s,7^3R,E)-1^1,2^6-dimethyl-3-oxo-5^2,5^3-dihydro-1^1H,5′H-9-oxa-4-aza-5(2,1)-benzo[d]imidazola-2(2,4)-pyridina-1(4,5)-pyrazola-7(1,3)-cyclobutanacyclononaphane-5^6-yl)piperazin-1-yl)-3-fluoropiperidin-1-yl)-4-methylpyridin-2-yl)piperidine-2,6-dione]
[1]
  Degradation H1975 # 28 DTC: 89.6
[2]
  Degradation H1975 # 25-LTC: 92.0
